Source: patent US4464367A, “Cephalosporin derivatives, process for preparation thereof and drugs containing said derivatives usable as antibiotics” (Sanofi, priority 1980, dated 1984)
Converted amounts (≈) assume the structure as drawn. Counter-ions that a name gives are not always drawn. Like-named read-outs stand apart in the source and are kept apart here.

Columns and labels:
Escherichia coli A 223 = assay: in vitro bacteriostatic action, solid medium, dilutions method; type: cell-based; conditions: A223, not producing lactamases, read-out: minimum inhibitor concentration (MIC)
Experimental: (§1) The in vitro bacteriostatic action was determined in a solid medium by the dilutions method. The study was directed to Gram^+ and Gram^- strains of which several are known for producing β lactamases.
(§2) The results are expressed in the minimum inhibitor concentrations (MIC--μg/ml).

[1] = test system: Klebsiella pneumoniae RO 30; assay: as above; type: cell-based; conditions: RO30, producing lactamases, read-out: minimum inhibitor concentration (MIC)
Experimental: as §1, §2

[2] = test system: Escherichia coli SOL RL 90; assay: as above; type: cell-based; conditions: SOLRL90, producing lactamases, read-out: minimum inhibitor concentration (MIC)
Experimental: as §1, §2

[3] = test system: Staphylococcus aureus Smith; assay: as above; type: cell-based; conditions: not producing lactamases, read-out: minimum inhibitor concentration (MIC)
Experimental: as §1, §2

[4] = test system: Klebsiella pneumoniae IP E 55; assay: as above; type: cell-based; conditions: IPE55, not producing lactamases, read-out: minimum inhibitor concentration (MIC)
Experimental: as §1, §2

[5] = test system: Escherichia coli R 69/2 TEM; assay: as above; type: cell-based; conditions: R69/2TEM, read-out: minimum inhibitor concentration (MIC)
Experimental: as §1, §2

[6] = test system: Escherichia coli SOL RL 90; assay: therapeutic efficacy in septicaemia provoked in the mouse by Escherichia coli SOL RL 90; type: in vivo; conditions: SOLRL90, sc, 96 h, read-out: DE 50 (median effective dose, ED 50)
Experimental: The therapeutic efficacy of the products is determined in the septicaemic model of the mouse.
Septicaemia is provoked by intraperitoneal inoculation of 0.5 ml of an appropriate dilution of suspension of the strain E.coli Sol. RL 90 producing cephalosporinase.
The products are administered in solution in a phosphate buffer pH 7.0 in a volume of 0.2 ml by the sub-cutaneous route and at a rate of 5 doses (mg of product per kg of live weight of mouse) to batches of 10 mice 1 hour and 5 hours after inoculation of the germ.
After 4 days of observation during which the mortality is noted, the median effective doses (ED 50) are calculated by the Muench and Reed method.

[7] = solubility in a buffer solution; type: physicochemical; conditions: pH 7, aqueous buffer; buffer solution having a pH of 7
Source text: The pharmaceutical compositions are made from compounds (I) in their acid form or, when their solubility is insufficient, in the form of a salt.

CO/N=C(\C(=O)NC1C(=O)N2C(C(=O)O)=C(CSC(=O)c3ccco3)CSC12)c1csc(N)n1 (stereo not drawn) [31 916, Syn isomer [(amino-2 thiazolyl-4)-2 methoxyimino-2 acetamido]-7 (furyl-2 carbonylthiomethyl)-3 cepheme-3 4-carboxylic acid]
MIC (Escherichia coli A 223): 0.5 µg/mL (≈ 0.955 µM)
MIC [1]: 8 µg/mL (≈ 15.3 µM)
MIC [2]: 2 µg/mL (≈ 3.82 µM)
MIC [3]: 0.25 µg/mL (≈ 0.477 µM)
MIC [4]: 1 µg/mL (≈ 1.91 µM)
MIC [5]: 0.25 µg/mL (≈ 0.477 µM)
ED50 ([6]; mouse septicaemia, sub-cutaneous, 1 hour and 5 hours after inoculation, 4 days of observation, Muench and Reed method): 5.4 mg/kg

CO/N=C(\C(=O)NC1C(=O)N2C(C(=O)O)=C(CSC(=O)c3cccs3)CSC12)c1csc(N)n1 (stereo not drawn) [31 917, syn isomer [(amino-2 thiazolyl-4)-2 methoxyimino-2 acetamido]-7 (thienyl-2 carbonylthiomethyl)-3 cepheme-3 4-carboxylic acid]
MIC (Escherichia coli A 223): 0.5 µg/mL (≈ 0.927 µM)
MIC [1]: 8 µg/mL (≈ 14.8 µM)
MIC [2]: 2 µg/mL (≈ 3.71 µM)
MIC [3]: 0.25 µg/mL (≈ 0.463 µM)
MIC [4]: 1 µg/mL (≈ 1.85 µM)
MIC [5]: 0.5 µg/mL (≈ 0.927 µM)
ED50 [6]: 3.6 mg/kg

CO/N=C(\C(=O)NC1C(=O)N2C(C(=O)O)=C(CSC(=O)c3ccco3)CSC12)c1csc(N)n1 (stereo not drawn) [sodium salt of compound CM 31916]
solubility [7]: > 200 mg/mL
